Legend:
Histamine H3 receptor = Histamine H3 receptor (Homo sapiens, UniProt Q9Y5N1)
[1] = target: T1, Alpha-2A adrenergic receptor (Homo sapiens, UniProt P08913)
T1 sequence (P08913 whole entry): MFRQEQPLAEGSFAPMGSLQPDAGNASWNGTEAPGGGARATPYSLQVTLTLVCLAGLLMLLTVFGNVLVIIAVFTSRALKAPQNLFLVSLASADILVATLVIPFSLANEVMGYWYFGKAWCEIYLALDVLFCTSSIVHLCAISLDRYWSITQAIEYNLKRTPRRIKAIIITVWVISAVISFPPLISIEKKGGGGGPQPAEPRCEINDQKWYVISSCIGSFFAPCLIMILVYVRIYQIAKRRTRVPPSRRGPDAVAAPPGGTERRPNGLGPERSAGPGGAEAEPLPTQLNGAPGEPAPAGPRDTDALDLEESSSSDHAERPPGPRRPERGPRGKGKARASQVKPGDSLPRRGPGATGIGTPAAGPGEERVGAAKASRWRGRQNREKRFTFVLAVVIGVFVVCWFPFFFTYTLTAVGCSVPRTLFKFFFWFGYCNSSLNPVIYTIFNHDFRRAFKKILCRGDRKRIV

[2] = target: Prostaglandin G/H synthase 1 (Homo sapiens, UniProt P23219); assay type: functional
Prostaglandin G/H synthase 1, sequence (P23219 whole entry): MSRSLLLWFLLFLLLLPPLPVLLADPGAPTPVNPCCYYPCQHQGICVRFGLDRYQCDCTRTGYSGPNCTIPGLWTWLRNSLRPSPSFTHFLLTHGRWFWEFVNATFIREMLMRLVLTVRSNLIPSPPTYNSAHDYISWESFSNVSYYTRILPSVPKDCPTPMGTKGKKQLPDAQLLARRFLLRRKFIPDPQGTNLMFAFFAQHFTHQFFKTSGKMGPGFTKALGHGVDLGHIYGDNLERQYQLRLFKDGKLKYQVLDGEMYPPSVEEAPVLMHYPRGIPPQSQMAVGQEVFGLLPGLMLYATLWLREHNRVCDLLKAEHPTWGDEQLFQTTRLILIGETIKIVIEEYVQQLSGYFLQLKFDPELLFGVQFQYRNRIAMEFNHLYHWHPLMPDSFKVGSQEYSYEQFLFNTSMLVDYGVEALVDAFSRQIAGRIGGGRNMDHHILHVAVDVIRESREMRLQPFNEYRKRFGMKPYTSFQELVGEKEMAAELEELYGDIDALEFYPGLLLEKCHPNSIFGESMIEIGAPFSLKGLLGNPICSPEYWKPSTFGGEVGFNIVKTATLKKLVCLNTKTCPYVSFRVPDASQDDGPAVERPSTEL

[3] = target: 5-hydroxytryptamine receptor 2B (Homo sapiens, UniProt P41595); assay type: functional, cell-based
5-hydroxytryptamine receptor 2B, sequence (P41595 whole entry): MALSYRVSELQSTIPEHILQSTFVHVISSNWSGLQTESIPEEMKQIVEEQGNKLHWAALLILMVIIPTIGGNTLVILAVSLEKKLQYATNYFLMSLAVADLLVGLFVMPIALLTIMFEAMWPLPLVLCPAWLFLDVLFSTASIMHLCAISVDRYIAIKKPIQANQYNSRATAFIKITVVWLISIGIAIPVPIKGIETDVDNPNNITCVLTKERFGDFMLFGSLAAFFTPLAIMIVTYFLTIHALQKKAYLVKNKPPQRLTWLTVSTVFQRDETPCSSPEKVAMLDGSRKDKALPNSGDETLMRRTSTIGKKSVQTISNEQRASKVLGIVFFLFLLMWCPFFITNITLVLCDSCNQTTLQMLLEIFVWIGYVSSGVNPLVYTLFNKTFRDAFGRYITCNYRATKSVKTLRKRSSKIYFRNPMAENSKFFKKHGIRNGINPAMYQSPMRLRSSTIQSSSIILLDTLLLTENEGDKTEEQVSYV

Mu-type opioid receptor = Mu-type opioid receptor (Homo sapiens, UniProt P35372)
Mu-type opioid receptor, sequence (P35372 whole entry): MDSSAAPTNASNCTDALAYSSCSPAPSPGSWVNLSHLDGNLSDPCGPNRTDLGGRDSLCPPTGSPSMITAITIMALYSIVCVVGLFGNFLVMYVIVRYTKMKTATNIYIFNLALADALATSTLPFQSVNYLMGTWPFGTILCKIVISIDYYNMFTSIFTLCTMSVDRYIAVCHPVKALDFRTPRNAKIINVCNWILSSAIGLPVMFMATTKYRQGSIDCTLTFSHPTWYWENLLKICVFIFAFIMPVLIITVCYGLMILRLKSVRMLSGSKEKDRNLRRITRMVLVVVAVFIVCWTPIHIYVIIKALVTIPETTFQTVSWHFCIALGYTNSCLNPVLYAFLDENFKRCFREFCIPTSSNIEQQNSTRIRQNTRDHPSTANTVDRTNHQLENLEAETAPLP

Estrogen receptor = target: T2, Estrogen receptor (Homo sapiens, UniProt P03372)
T2 sequence (P03372 whole entry): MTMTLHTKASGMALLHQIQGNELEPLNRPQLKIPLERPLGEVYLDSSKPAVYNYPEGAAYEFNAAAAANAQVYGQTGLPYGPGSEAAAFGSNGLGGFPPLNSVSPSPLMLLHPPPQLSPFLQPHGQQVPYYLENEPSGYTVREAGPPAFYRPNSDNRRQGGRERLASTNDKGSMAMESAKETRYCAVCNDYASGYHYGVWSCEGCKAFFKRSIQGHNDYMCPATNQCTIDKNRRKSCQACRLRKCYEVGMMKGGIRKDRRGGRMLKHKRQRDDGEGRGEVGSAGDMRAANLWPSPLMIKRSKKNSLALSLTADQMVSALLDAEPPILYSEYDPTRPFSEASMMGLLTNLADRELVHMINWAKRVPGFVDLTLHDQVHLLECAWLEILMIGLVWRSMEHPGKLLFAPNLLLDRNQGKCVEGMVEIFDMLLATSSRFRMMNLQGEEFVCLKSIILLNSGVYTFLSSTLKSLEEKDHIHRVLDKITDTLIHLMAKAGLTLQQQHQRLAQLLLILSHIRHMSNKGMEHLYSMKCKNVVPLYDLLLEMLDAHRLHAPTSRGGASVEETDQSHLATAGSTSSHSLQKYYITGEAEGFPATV

[4] = target: Voltage-gated inwardly rectifying potassium channel KCNH2 (Homo sapiens, UniProt Q12809); assay type: functional; conditions: read-out: AC50
Voltage-gated inwardly rectifying potassium channel KCNH2, sequence (Q12809 whole entry): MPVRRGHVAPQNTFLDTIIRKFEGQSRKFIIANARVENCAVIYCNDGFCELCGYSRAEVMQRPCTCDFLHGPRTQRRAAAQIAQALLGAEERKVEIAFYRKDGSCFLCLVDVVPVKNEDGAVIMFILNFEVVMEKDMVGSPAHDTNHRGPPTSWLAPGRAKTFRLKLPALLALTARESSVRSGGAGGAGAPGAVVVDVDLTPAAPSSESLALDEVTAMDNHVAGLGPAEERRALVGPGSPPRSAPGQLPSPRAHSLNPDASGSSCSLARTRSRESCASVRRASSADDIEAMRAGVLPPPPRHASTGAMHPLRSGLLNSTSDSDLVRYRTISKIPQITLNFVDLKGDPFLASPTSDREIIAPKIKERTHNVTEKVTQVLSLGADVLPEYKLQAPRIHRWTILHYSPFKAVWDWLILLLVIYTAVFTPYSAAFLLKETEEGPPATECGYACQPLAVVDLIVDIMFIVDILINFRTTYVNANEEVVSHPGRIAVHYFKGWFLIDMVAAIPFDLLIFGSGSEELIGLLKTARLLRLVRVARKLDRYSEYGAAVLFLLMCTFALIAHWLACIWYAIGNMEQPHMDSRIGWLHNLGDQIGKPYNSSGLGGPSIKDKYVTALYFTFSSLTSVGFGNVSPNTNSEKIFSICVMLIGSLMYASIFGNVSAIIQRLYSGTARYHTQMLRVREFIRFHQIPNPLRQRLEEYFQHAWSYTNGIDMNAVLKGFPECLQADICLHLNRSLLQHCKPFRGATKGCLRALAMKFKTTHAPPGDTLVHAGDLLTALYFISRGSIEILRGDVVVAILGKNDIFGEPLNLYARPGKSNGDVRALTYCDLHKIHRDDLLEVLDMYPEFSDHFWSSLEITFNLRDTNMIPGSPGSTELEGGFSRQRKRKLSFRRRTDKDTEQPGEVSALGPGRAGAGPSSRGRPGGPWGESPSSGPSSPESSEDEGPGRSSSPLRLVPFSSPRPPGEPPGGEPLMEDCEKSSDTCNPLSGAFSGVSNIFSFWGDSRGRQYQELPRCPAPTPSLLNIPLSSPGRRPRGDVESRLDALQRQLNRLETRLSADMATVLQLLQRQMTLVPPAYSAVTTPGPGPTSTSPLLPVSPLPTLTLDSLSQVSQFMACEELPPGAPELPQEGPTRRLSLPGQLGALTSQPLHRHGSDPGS

[5] = target: T3, Amine oxidase [flavin-containing] A (Homo sapiens, UniProt P21397); assay type: functional
T3 sequence (P21397 whole entry): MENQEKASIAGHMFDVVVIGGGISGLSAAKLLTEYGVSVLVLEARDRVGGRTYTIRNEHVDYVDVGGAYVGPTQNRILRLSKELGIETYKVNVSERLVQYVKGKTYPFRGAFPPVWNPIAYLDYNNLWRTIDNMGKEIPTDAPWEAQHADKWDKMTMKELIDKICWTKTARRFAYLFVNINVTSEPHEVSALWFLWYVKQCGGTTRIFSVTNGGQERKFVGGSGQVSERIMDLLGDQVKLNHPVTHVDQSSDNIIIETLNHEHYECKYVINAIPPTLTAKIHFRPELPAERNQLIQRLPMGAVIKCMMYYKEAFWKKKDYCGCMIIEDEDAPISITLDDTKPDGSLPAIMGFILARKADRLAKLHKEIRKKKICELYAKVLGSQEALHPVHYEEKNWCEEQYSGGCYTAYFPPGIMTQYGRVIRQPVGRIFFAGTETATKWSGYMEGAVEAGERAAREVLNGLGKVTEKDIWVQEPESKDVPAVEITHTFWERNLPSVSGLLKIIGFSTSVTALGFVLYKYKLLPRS

[6] = target: Sodium-dependent noradrenaline transporter (Homo sapiens, UniProt P23975)
Sodium-dependent noradrenaline transporter, sequence (P23975 whole entry): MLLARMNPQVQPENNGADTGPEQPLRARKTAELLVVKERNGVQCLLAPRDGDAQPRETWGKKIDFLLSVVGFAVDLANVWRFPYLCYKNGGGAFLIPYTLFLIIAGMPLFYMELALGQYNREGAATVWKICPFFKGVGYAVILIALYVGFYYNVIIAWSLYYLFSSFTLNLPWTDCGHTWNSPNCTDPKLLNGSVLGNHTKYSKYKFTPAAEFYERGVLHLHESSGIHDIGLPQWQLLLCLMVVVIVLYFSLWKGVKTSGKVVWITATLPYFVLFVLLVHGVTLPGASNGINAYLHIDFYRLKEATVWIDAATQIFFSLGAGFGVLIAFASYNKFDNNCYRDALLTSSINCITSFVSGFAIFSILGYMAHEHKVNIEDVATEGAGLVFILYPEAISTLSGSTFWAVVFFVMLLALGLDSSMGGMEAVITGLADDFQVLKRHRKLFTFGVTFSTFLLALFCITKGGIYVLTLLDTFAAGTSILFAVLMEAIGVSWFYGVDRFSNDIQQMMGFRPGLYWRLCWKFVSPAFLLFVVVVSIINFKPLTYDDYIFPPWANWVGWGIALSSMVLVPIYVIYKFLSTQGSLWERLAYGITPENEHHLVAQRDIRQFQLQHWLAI

[7] = target: T4, Alpha-1A adrenergic receptor (Homo sapiens, UniProt P35348); assay type: functional, cell-based
T4 sequence (P35348 whole entry): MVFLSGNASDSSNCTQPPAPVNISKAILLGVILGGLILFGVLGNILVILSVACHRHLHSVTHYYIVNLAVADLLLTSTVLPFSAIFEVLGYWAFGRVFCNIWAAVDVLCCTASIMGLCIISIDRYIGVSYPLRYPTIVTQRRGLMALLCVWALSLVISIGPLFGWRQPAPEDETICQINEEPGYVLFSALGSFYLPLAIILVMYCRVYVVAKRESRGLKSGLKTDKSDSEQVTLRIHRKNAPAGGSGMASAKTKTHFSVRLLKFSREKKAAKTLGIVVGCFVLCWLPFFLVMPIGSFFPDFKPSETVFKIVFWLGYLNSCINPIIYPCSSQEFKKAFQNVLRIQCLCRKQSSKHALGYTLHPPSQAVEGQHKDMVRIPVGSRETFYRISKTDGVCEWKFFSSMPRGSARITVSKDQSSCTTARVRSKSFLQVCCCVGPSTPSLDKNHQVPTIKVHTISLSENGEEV

[8] = target: Sodium-dependent dopamine transporter (Homo sapiens, UniProt Q01959)
Sodium-dependent dopamine transporter, sequence (Q01959 whole entry): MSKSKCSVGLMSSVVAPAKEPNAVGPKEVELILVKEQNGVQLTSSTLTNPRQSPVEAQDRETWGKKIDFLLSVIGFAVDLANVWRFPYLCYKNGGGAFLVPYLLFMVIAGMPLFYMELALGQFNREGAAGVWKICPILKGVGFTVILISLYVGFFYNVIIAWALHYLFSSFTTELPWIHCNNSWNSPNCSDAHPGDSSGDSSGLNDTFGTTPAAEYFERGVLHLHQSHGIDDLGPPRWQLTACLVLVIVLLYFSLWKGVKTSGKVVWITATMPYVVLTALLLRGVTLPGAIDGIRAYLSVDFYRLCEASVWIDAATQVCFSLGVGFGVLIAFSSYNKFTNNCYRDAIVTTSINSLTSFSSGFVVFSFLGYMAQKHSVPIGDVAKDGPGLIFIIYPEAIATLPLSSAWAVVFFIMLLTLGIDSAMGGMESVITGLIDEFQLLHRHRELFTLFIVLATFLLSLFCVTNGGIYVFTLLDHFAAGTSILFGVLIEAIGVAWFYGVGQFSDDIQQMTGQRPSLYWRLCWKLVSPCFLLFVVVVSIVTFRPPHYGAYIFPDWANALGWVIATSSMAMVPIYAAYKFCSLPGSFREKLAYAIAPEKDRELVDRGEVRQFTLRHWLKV

Prothrombin = Prothrombin (Homo sapiens, UniProt P00734); assay type: functional
Thromboxane A2 receptor = target: T5, Thromboxane A2 receptor (Homo sapiens, UniProt P21731); assay type: functional, cell-based
T5 sequence (P21731 whole entry): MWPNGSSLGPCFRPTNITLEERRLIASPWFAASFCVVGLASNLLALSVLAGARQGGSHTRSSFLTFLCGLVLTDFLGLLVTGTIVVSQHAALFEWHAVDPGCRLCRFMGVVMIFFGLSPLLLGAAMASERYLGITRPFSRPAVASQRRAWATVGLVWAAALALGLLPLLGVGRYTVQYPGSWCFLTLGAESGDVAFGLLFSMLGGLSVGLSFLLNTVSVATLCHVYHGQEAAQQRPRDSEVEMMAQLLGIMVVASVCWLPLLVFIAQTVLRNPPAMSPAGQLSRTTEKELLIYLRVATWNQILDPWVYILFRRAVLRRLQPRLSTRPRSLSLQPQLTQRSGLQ

D(1A) dopamine receptor = D(1A) dopamine receptor (Homo sapiens, UniProt P21728)
D(1A) dopamine receptor, sequence (P21728 whole entry): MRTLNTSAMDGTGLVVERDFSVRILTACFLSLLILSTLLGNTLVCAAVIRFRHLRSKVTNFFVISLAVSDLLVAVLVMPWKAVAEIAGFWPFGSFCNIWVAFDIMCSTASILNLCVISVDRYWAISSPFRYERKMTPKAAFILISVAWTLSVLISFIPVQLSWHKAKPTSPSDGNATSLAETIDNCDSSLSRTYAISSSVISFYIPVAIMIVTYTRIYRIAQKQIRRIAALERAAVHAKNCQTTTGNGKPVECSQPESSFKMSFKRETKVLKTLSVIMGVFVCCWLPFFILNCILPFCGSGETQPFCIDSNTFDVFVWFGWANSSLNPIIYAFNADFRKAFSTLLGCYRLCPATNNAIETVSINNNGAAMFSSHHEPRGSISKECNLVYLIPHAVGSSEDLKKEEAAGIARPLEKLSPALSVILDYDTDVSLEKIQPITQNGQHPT
Also: assay procedure not described here.

Histamine H3 receptor, sequence (Q9Y5N1 whole entry): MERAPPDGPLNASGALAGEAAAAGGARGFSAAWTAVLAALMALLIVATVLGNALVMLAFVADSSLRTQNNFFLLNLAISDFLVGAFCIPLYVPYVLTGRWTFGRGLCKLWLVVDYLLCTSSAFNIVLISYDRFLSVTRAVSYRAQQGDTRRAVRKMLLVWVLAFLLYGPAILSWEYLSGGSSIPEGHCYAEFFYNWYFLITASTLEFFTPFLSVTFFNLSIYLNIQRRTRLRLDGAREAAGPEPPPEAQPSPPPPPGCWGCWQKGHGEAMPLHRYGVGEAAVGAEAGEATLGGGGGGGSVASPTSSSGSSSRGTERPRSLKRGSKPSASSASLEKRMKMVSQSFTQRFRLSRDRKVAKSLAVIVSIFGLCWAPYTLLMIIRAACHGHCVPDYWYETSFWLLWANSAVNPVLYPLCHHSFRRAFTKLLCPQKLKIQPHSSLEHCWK

Row | SMILES | AC50 (Histamine H3 receptor) [µM] | AC50 [1] [µM] | AC50 [2] [µM] | AC50 [3] [µM] | AC50 (Mu-type opioid receptor) [µM] | AC50 (Estrogen receptor) [µM] | AC50 [4] [µM] | AC50 [5] [µM] | AC50 [6] [µM] | AC50 [7] [µM] | AC50 [8] [µM] | AC50 (Prothrombin) [µM] | AC50 (Thromboxane A2 receptor) [µM] | AC50 (D(1A) dopamine receptor) [µM]
1 | NC(=O)NCCC[C@H](N)C(=O)O [L-CITRULLINE] | > 30 | > 30 | > 30 | > 30 | > 30 | > 30 | > 30 | > 30 | > 30 | > 30 | > 30 | > 30 | > 30 | > 30
2 | CC(=O)O[C@H]1C[C@H](O[C@H]2[C@@H](O)C[C@H](O[C@H]3[C@@H](O)C[C@H](O[C@H]4CC[C@@]5(C)[C@H](CC[C@@H]6[C@@H]5C[C@@H](O)[C@]5(C)[C@@H](C7=CC(=O)OC7)CC[C@]65O)C4)O[C@@H]3C)O[C@@H]2C)O[C@H](C)[C@H]1O[C@@H]1O[C@H](CO)[C@@H](O)[C@H](O)[C@H]1O [LANATOSIDE C] | > 30 | > 30 | > 30 | > 30 | > 30 | > 30 | > 30 | > 30 | > 30 | > 30 | > 30 | > 30 | > 30 | > 30
3 | Nc1nc(N)nc(Nc2ccc([As]3SCC(CO)S3)cc2)n1 (centres undefined) [MELARSOPROL] | > 30 | > 30 | 23.5 | > 30 | > 30 | > 30 | > 10 | > 30 | > 30 | > 30 | 29.2 | > 30 | > 30 | > 30
4 | Cc1cc(CCN2CCN(c3cccc(Cl)c3)CC2)n[nH]1 [MEPIPRAZOLE] | > 30 | 4.52 | > 30 | > 30 | 15.7 | > 30 | 2.71 | > 30 | > 30 | 0.43 | 8.04 | > 30 | > 30 | 0.591
5 | CO[C@H]1[C@@H](O)C[C@H](O[C@H]2[C@@H](O)C[C@H](O[C@H]3[C@@H](O)C[C@H](O[C@H]4CC[C@@]5(C)[C@H](CC[C@@H]6[C@@H]5C[C@@H](O)[C@]5(C)[C@@H](C7=CC(=O)OC7)CC[C@]65O)C4)O[C@@H]3C)O[C@@H]2C)O[C@@H]1C [METILDIGOXIN] | > 30 | > 30 | > 30 | > 30 | > 30 | > 30 | > 30 | > 30 | > 30 | > 30 | > 30 | > 30 | > 30 | > 30
6 | CCOC(=O)[C@H](CCc1ccccc1)N[C@@H](C)C(=O)N1Cc2cc(OC)c(OC)cc2C[C@H]1C(=O)O [MOEXIPRIL] | > 30 | > 30 | > 30 | > 30 | > 30 | > 30 | > 30 | > 30 | > 30 | > 30 | > 30 | > 30 | > 30 | > 30
7 | c1ccc2c(CC3=NCCN3)cccc2c1 [NAPHAZOLINE] | > 30 | 0.022 | > 30 | > 30 | 8.37 | > 30 | > 30 | > 30 | > 30 | 0.0014 | > 30 | > 30 | > 30 | > 30
8 | N[C@@H](Cc1c[nH]c2ccc(O)cc12)C(=O)O [OXITRIPTAN] | > 30 | > 30 | > 30 | 10.1 | > 30 | > 30 | > 30 | > 30 | > 30 | > 30 | > 30 | > 30 | > 30 | > 30
9 | CNC(=O)Oc1ccc2c(c1)[C@]1(C)CCN(C)[C@@H]1N2C [PHYSOSTIGMINE] | > 30 | > 30 | 4.3 | > 30 | 5.74 | > 30 | > 30 | > 30 | > 30 | > 30 | > 30 | > 30 | > 30 | > 30
10 | C1CNCCN1 [PIPERAZINE] | > 30 | > 30 | > 30 | > 30 | > 30 | > 30 | > 30 | > 30 | > 30 | > 30 | > 30 | > 30 | > 30 | > 30
11 | CO[C@H]1/C=C/O[C@@]2(C)Oc3c(C)c(O)c4c(O)c(cc(O)c4c3C2=O)NC(=O)/C(C)=C\C=C\[C@H](C)[C@H](O)[C@@H](C)[C@@H](O)[C@@H](C)[C@H](OC(C)=O)[C@@H]1C [RIFAMYCIN] | > 30 | > 30 | 28.7 | > 30 | > 30 | > 30 | > 30 | > 30 | > 30 | 8.13 | > 30 | > 30 | 8.77 | > 30
